Entries after “also recorded” stand apart in the source; their conditions may differ.
How the values were obtained:
[1] = system: mouse model of epileptic seizure which has been induced to have seizure by kainic acid; assay: epileptic seizure induced by kainic acid: seizure level, bodyweight, survival
Protocol: Kainic acid (KA, Abcam) was dissolved in physiological saline in hot water bath to prepare 9 mg/ml kainic acid solution. After intraperitoneal injection of kainic acid (30 mg/kg), severity level and symptoms of seizure were recorded for 2 hours. Severity level of seizure was decided based on the criteria given in the following Table 2, and also the bodyweight was measured before and 24 hours after the injection of kainic acid, and then the results are compared to each other.

[2] = target: T1, glutamine synthetase (GS) (Mus musculus, UniProt P15105); assay: in vitro GS activity of PFC tissue lysate treated with nitrogen peroxide (PN) and tyrosine; type: biochemical; conditions: PFC tissue lysate (10 μg), 0.0031 to 0.45 mg/ml tyrosine, nitrogen peroxide (PN) 10 times the tissue lysate
T1 construct: PFC sample was weighed first, and, after lysis of the tissues by using Bullet homogenizer, subjected to centrifuge; from tissue; host or cells: mouse prefrontal cortex (PFC) lysate
Protocol: Each of the blood and PFC sample was obtained from a mouse anesthetized with CO2 gas. Specifically, mouse blood was collected between 9 AM and 11 AM and stored in a K3EDTA-coated vacuum container. Plasma was obtained by centrifuge for 10 minutes at 4° C., 500×g. PFC sample was weighed first, and, after lysis of the tissues by using Bullet homogenizer, subjected to centrifuge for 20 minutes at 4° C., 12,000 rpm. Thus-obtained plasma and tissue lysate were kept at −80° C. until use.
10 μg of the lysate were admixed with […] of GS assay buffer solution (50 mM imidazole-HCl, pH 6.8, 50 mM L-glutamine, 25 mM hydroxylamine, 25 mM sodium arsenate, 2 mM MnCl2 and 0.16 mM ADP), followed by incubation for 1 hour at 37° C.
After the mixing, the reaction was terminated by adding 50 μl of stop buffer solution (90 mM FeCl3, 1.8 N HCl and 1.45% trichloroacetic acid), and then γ-glutamylhydroxamate synthesized from a reaction between glutamine and hydroxylamine as catalyzed by GS was measured at 560 nm using a microplate reader.
Moreover, after PFC (prefrontal cortex) tissue lysate (10 μg) was added and mixed with 0.0031 to 0.45 mg/ml tyrosine, incubated on ice for 10 minutes, and added with nitrogen peroxide (PN), in an amount that is 10 times the tissue lysate, followed by incubation for 10 minutes, in vitro GS activity was examined.

[3] = system: chronic immobilization stress group (STR); assay: OFT (open field test) after chronic immobilization stress; type: in vivo, mouse; conditions: tyrosine-diet (TD, 181.2 mg/kg) compared to normal diet (ND)
Protocol: The animal models were divided into two groups (i.e., normal group and stress group). The animal of stress group was individually brought by force to a restrainer for 2 hours every day (i.e., between 2 PM and 4 PM) so that it was applied with chronic immobilization stress for 15 days. Change in bodyweight and food intake amount were measured every other day. The normal group and stress group were divided again into a normal diet group and a tyrosine-supplemented diet group (181.2 mg/kg), and then fed. OFT (open field test) was carried out using a rectangular box (60×60×20 cm). Mouse was placed at the center area of box (30×30 cm), and the mouse movement was followed for 5 minutes and total travel distance, center area duration, and frequency of center area entries were measured.

[4] = system: chronic immobilization stress group (STR); assay: ROS/RNS in plasma and PFC, chronic immobilization stress; type: in vivo, mouse; conditions: tyrosine diet (181.2 mg/kg) compared to normal diet
Protocol: Each of the blood and PFC sample was obtained from a mouse anesthetized with CO2 gas. Specifically, mouse blood was collected between 9 AM and 11 AM and stored in a K3EDTA-coated vacuum container. Plasma was obtained by centrifuge for 10 minutes at 4° C., 500×g. PFC sample was weighed first, and, after lysis of the tissues by using Bullet homogenizer, subjected to centrifuge for 20 minutes at 4° C., 12,000 rpm. Thus-obtained plasma and tissue lysate were kept at −80° C. until use. After that, the animal was sacrificed, and a change in corticosterone amount in plasma was examined. ROS/RNS in plasma and PFC was also examined. The corticosterone amount was examined using an ELISA kit (Cayman) by following the manufacturer's protocol, and ROS/RNS was also examined using an ROS/RNS assay kit (Cell Biolabs, San Diego, CA, USA) by following the manufacturer's protocol. The animal models were divided into two groups (i.e., normal group and stress group). The animal of stress group was individually brought by force to a restrainer for 2 hours every day (i.e., between 2 PM and 4 PM) so that it was applied with chronic immobilization stress for 15 days. Change in bodyweight and food intake amount were measured every other day. The normal group and stress group were divided again into a normal diet group and a tyrosine-supplemented diet group (181.2 mg/kg), and then fed.

[5] = system: high-fat diet mouse model of type 2 diabetes; assay: high-fat diet mouse model of type 2 diabetes: bodyweight, food intake amount, blood glucose; type: in vivo; conditions: HFD+L-Tyr (181 mg of L-tyrosine/kg) compared to HFD, measured every week
Protocol: Twenty-seven C57BL/6 male mice (3-week old) were acclimated to the breeding condition for 1 week. […] Blood glucose was measured every week.

[6] = system: acute renal failure caused by kidney ischemia or reperfusion injury; assay: plasma creatinine (Jaffe method), renal ischemia and reperfusion; type: in vivo, mouse; conditions: L-tyrosine 100 mg/kg oral for 4 days, 24 hours after ischemia and reperfusion
Protocol: C57BL/6 male mouse (23 to 25 g, KOATECH, South Korea) was allowed to have free access to diets and water in sterile breeding room with constant temperature and humidity. The animals were divided into 3 test groups, i.e., 1) Control group (Sham), 2) Renal ischemia having treatment with prepared solvent and induced reperfusion group (CMC+IR), and 3) Renal ischemia having treatment with L-tyrosine and induced reperfusion group (L-Tyr+IR). L-Tyrosine (100 mg/kg) was suspended in 0.5% CMC (carboxymethyl cellulose). The animal was orally administered, once a day for 4 days, with L-tyrosine or the prepared solvent CMC. Thirty minutes after the oral administration on Day 4, renal ischemia was caused. Specifically, the animal abdomen was cut and renal pedicles at both sides were clamped using a Muller atraumatic vascular clamp to cause renal ischemia. […] Blood collected in the above was centrifuged for 15 minutes at 3,000 rpm to separate plasma, and blood creatinine was measured by using Jaffe method. With regard to Jaffe method, based on a difference between the absorbance measured at a wavelength of 510 nm after the reaction of plasma sample with picric acid and the absorbance measured after completing the reaction using 60% acetic acid, the amount of creatinine was calculated and it was expressed in unit of mg/dl.

T1 sequence (P15105 2-373 limits assumed): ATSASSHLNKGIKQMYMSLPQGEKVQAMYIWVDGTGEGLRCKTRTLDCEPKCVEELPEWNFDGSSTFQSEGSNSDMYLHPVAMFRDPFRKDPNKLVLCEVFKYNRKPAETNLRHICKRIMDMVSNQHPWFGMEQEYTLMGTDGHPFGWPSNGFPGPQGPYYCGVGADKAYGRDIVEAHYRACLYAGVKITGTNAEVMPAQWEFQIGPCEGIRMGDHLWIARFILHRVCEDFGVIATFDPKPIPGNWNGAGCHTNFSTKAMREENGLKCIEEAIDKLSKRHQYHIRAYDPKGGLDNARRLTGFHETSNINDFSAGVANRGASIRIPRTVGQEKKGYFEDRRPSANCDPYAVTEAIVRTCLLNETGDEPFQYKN

SMILES	severity of seizure ([1]; ICR mouse, L-Tyr diet 181, 543 or 905 mg/kg for 1 week, kainic acid 30 mg/kg i.p., 2 hours)	mouse death ([1]; depending on intake amount of tyrosine, kainic acid 30 mg/kg i.p.)	survival ([1]; diet with feeds containing tyrosine 900 mg/kg (actual intake amount))	in vitro GS activity [2]	center area duration [3]	frequency of center area entries [3]	travel distance [3]	ROS/RNS in PFC tissues [4]	ROS/RNS in plasma [4]	blood glucose [5]	blood glucose ([5]; listed as L-Tyr)	creatinine in plasma [6]
N[C@@H](Cc1ccc(O)cc1)C(=O)O [tyrosine]	severity of seizure is gradually reduced depending on tyrosine amount	improvement in mouse death was also observed depending on intake amount of tyrosine	all of the mice have survived	statistically significant increase in GS activity; also recorded: higher GS activity is obtained in accordance with an increase in the tyrosine concentration	higher	higher	higher	statistically significant decrease in ROS/RNS	statistically significant decrease in ROS/RNS	–	–	–
N[C@@H](Cc1ccc(O)cc1)C(=O)O [L-tyrosine]	–	–	–	–	–	–	–	–	–	statistically significant decrease in blood glucose amount	statistically significant decrease	suppressed

— patent US12605350B2, “Composition for preventing, ameliorating, or treating disease caused by nitration of tyrosine in proteins comprising tyrosine as effective component” (INDUSTRY-ACADEMIC COOPERATION FOUNDATION GYEONGSANG …, priority 2020, dated 2026)
